From PMC4729137, “Functional analysis of androgen receptor mutations that confer anti-androgen resistance identified in circulating cell-free DNA from prostate cancer patients” (Genome Biology, 2016)
Where a chain is given by its changes, count along the chain named.

Assays:
[1] = target: T1, H875Q-AR (Homo sapiens, UniProt P10275, H875Q); type: cell-based; conditions: AR mutant H875Q; transfected PC3 cells; 0.1 nM R1881; drug 0 to 50 μM
T1 sequence (P10275 1-920 H875Q): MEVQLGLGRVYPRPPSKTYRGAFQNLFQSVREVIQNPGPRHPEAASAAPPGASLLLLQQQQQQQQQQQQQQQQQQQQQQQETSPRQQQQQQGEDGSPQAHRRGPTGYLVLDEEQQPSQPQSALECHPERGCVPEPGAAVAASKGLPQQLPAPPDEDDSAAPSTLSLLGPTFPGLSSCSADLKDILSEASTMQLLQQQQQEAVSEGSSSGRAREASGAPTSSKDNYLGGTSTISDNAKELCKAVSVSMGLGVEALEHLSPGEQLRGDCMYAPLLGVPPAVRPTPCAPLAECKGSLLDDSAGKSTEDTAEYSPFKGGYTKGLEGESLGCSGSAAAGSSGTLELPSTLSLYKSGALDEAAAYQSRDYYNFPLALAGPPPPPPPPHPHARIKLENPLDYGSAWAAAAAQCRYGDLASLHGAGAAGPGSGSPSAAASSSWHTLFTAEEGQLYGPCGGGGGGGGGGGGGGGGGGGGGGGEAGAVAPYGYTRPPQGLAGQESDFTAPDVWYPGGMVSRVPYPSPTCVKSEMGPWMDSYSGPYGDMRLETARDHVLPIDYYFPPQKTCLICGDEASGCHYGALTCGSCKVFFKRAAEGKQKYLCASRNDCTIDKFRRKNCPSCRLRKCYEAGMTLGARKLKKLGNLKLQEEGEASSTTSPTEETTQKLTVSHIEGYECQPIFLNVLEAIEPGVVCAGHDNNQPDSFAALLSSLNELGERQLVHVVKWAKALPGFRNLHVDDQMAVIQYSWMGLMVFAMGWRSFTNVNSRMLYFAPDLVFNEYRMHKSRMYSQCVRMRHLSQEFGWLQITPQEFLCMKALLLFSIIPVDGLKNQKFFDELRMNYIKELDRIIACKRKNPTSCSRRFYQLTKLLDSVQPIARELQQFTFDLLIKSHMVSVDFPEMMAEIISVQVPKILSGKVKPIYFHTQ
Excerpt: (§1) Full-length human AR (WT-AR) was encoded on a pcDNA3.1 expression plasmid (Life technologies). The LBD point mutations (single and multiple) were generated using the QuikChange II Site-Directed Mutagenesis Kit (Agilent Technologies) as per manufacturer’s instructions using WT-AR as the template. The mutagenic oligonucleotide primers were designed individually with the desired mutation in the middle of the primer with approximately 10 to 15 bases of correct sequence on both sides.
(§2) PC3 cells were seeded and transfected as described above. […] A non-stimulated/no R1881 control was used. After 24 h, cells were lysed and AR-dependent luciferase activity was quantified. Each concentration was assayed in quadruplicate n = 4, with a biological replicate of n = 3. Results were averaged and normalized by expressing them as a percentage of WT AR activity.

[2] = target: T2, H875Y-AR (Homo sapiens, UniProt P10275, H875Y); type: cell-based; conditions: AR mutant H875Y; transfected PC3 cells; 0.1 nM R1881; drug 0 to 50 μM
T2 sequence (P10275 1-920 H875Y): T1 sequence (P10275 1-920 H875Q) with Q875Y
Excerpt: as §1, §2

- Agonist response to treatment [1]: Partial
- Agonist response to treatment [2]: Yes
SMILES: CC(C)(O)C(=O)Nc1ccc([N+](=O)[O-])c(C(F)(F)F)c1 [Hydroxyflutamide, hydroxyflutamide]
